Measured values published in patent US8163785B2, “Pyrazolo[5,1b]oxazole derivatives as CRF-1 receptor antagonists” (Novartis AG, priority 2010, dated 2012).

Biological target: T1, human recombinant CRF-1 receptor (Homo sapiens, UniProt P34998)
T1 construct: expressed in transfected cells; host or cells: Chinese hamster ovary (CHO) cells, G418-selected
T1 sequence (P34998 24-415): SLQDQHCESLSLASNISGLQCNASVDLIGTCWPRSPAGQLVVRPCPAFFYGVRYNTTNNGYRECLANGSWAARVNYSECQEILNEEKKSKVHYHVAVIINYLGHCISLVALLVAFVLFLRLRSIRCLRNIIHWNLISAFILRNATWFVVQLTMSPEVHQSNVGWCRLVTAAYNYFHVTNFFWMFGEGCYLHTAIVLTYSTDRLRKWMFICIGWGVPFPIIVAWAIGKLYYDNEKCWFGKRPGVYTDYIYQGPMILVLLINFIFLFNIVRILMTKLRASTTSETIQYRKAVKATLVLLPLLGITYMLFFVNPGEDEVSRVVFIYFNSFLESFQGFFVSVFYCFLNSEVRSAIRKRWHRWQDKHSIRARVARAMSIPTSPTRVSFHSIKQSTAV
Assay: CRF-1 receptor antagonism, HTRF cAMP assay in CHO cells in the presence of 1 nM CRF
Assay type: cell-based
Settings: CHO cells expressing human recombinant CRF-1; inhibition of the effect of 1 nM CRF on cAMP; read-out: hCRF1ANTAG/IC50
Protocol: The CRF-1 or CRF-2a receptor activity of the agents of the invention has been determined in vitro in the following way:
Chinese hamster ovary (CHO) cells expressing either the human recombinant CRF-1 or CRF-2a receptors (Chen et al., Proc Natl Acad Sci USA 90, 8967-8971, 1993; Liaw et al., Endocrinology 137, 72-77, 1996) are propagated in Dulbecco's modified Eagle medium supplemented with 10% foetal calf serum, non-essential amino acids, 100 U/ml penicillin, 100 mg/l streptomycin and 1 g/l geneticin (G418). For cyclic AMP determinations the Homogeneous Time-Resolved Fluoresce (HTRF) cAMP dynamic 2 kit (Cishbio International, France) was used as per manufacturers' instructions. CHO cells, previously cryopreserved, were thawed, centrifuged for 7 mins at 1200 rpm and resuspended in serum free media, then pipetted out onto clear bottomed black tissue culture treated 384-well microtitre plates (Corning Inc, US) at 2,000 cells per well. […] The plate is read on the Pherastar (BMG, Germany). […] Values represented by a change in arbitrary fluorescence units are converted into cAMP concentrations by use of a standard curve the reagents for which are supplied with the kit. […] IC50 values of antagonists are calculated by fitting the percent inhibition of the effect of CRF by increasing concentrations of the antagonists. […]

IC50: 71 nM
Structure (SMILES): Cc1nc(C)n(-c2c(C)nn3c(-c4ccc(OC(F)F)cc4C)c(C)oc23)n1 [Example 1, 3-(4-(Difluoromethoxy)-2-methylphenyl)-7-(3,5-dimethyl-1H-1,2,4-triazol-1-yl)-2,6-dimethylpyrazolo[5,1-b]oxazole]
